Source: the supplement of paper PMC10307832

How the values were obtained:
Assay in all cases: relative viability (nuclei count vs DMSO), 5 days (fraction); higher = more cells survive
VE-821 + Dasatinib = compound: CS(=O)(=O)c1ccc(-c2cnc(N)c(C(=O)Nc3ccccc3)n2)cc1 [VE-821] + Cc1nc(Nc2ncc(C(=O)Nc3c(C)cccc3Cl)s2)cc(N2CCN(CCO)CC2)n1 [Dasatinib] (partner 0.075 µM)
How it was run: (§1)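 For relative viability, nuclei counts in treated wells were divided by those in vehicle wells. Lung cancer cell lines had been pin-tool dosed in 1536-well plates the day after seeding and cultured for 5 days, then fixed and stained in one step (final 0.05% Triton X-100, 1% formaldehyde, 1 ug/ml Hoechst) and imaged at 4×. Doses were one drug alone or a fixed anchor-drug dose plus five library-drug doses (not always all listed) in √10 steps, and values are duplicate-plate medians.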

Vismodegib + OSI-027 = compound: CS(=O)(=O)c1ccc(C(=O)Nc2ccc(Cl)c(-c3ccccn3)c2)c(Cl)c1 [Vismodegib] + COc1cccc2cc(-c3nc([C@H]4CC[C@H](C(=O)O)CC4)n4ncnc(N)c34)[nH]c12 [OSI-027] (partner 0.5 µM)
How it was run: as §1

Vismodegib + Pemetrexed = compound: CS(=O)(=O)c1ccc(C(=O)Nc2ccc(Cl)c(-c3ccccn3)c2)c(Cl)c1 [Vismodegib] + Nc1nc2[nH]cc(CCc3ccc(C(=O)N[C@@H](CCC(=O)O)C(=O)O)cc3)c2c(=O)[nH]1 [Pemetrexed] (partner 0.2 µM)
How it was run: as §1

VE-821 + Alpelisib = compound: CS(=O)(=O)c1ccc(-c2cnc(N)c(C(=O)Nc3ccccc3)n2)cc1 [VE-821] + Cc1nc(NC(=O)N2CCC[C@H]2C(N)=O)sc1-c1ccnc(C(C)(C)C(F)(F)F)c1 [Alpelisib] (partner 2 µM)
How it was run: as §1

Cell Line	relative viability (VE-821 + Dasatinib; first compound 0.08 µM)	relative viability (VE-821 + Dasatinib; first compound 0.253 µM)	relative viability (VE-821 + Dasatinib; first compound 0.8 µM)	relative viability (VE-821 + Dasatinib; first compound 2.53 µM)	relative viability (VE-821 + Dasatinib; first compound 8 µM)	relative viability (Vismodegib + OSI-027; first compound 0.253 µM)	relative viability (Vismodegib + OSI-027; first compound 0.8 µM)	relative viability (Vismodegib + OSI-027; first compound 2.53 µM)	relative viability (Vismodegib + OSI-027; first compound 8 µM)	relative viability (Vismodegib + Pemetrexed; first compound 0.253 µM)	relative viability (Vismodegib + Pemetrexed; first compound 0.8 µM)	relative viability (Vismodegib + Pemetrexed; first compound 2.53 µM)	relative viability (Vismodegib + Pemetrexed; first compound 8 µM)	relative viability (VE-821 + Alpelisib; first compound 0.08 µM)	relative viability (VE-821 + Alpelisib; first compound 0.253 µM)	relative viability (VE-821 + Alpelisib; first compound 0.8 µM)	relative viability (VE-821 + Alpelisib; first compound 2.53 µM)	relative viability (VE-821 + Alpelisib; first compound 8 µM)	relative viability (Vismodegib + OSI-027; first compound 0.08 µM)	relative viability (Vismodegib + Pemetrexed; first compound 0.08 µM)
NCI-H1793	0.376	0.371	0.437	0.427	0.386	0.246	0.248	0.242	0.23	0.877	0.708	0.83	0.726	0.689	0.681	0.497	0.727	0.687	–	–
NCI-H1755	0.455	0.452	0.372	0.413	0.318	0.688	0.73	0.689	0.634	0.417	0.365	0.426	0.432	1.01	0.887	0.622	0.946	0.62	0.782	0.441
LOU-NH91	0.571	0.489	0.567	0.55	0.584	0.689	0.673	0.693	0.709	0.385	0.42	0.416	0.414	0.747	0.738	0.66	0.75	0.702	0.777	0.349
NCI-H1975	0.372	0.287	–	0.278	0.253	0.633	0.686	0.632	0.607	0.264	0.293	0.263	0.287	0.621	0.598	0.46	0.534	0.406	0.724	0.309
CAL-12T	0.499	0.327	0.372	0.443	0.243	0.462	0.774	0.636	0.654	1.13	1.13	1.14	1.13	1.22	1.08	1.37	1.32	0.837	0.776	1.12
NCI-H441	0.641	0.558	0.706	0.687	0.539	0.693	0.638	0.518	0.601	–	0.246	0.247	0.283	0.902	0.801	0.682	0.672	0.744	0.932	0.247
NCI-H1944	0.22	0.213	0.185	0.27	0.228	0.391	0.422	0.388	0.442	0.696	0.611	–	0.629	0.954	0.804	0.53	0.885	0.452	0.413	0.625
RERF-LC-KJ	0.924	0.651	0.582	0.69	0.582	0.568	0.621	0.593	0.487	0.454	0.468	0.508	0.479	0.898	0.774	0.664	0.799	0.712	0.678	0.491
NCI-H838	0.301	0.259	–	0.288	0.24	0.334	0.338	0.41	0.441	0.247	0.241	0.23	0.262	1.1	0.955	0.911	0.966	0.907	0.416	0.226
